Here are results for 15 compounds from the SangsterLogP compilation.

One may read the logD as the decadic logarithm of the distribution of all forms, ionised or not, between an organic phase and buffer at a given pH. A lower logD goes with a more hydrophilic compound.

This data set in a line: from Kabankin, S.; Boldeskul, E.; Trinus, P.; Protsenko, D.; Landau, A. (1982). Physicochemical characteristics, antitumor activity and quantitative structure-activity relations for phosphoric …. Particulars: pH 7.4.
`O=C(NP(=O)(N1CC1)N1CC1)c1ccc(Cl)cc1` came in with a logD of 0.46.

The compound `O=C(NP(=O)(N1CC1)N1CC1)c1cc(I)cc(I)c1I` yielded a logD of 0.81.

On to `O=C(NP(=O)(N1CC1)N1CC1)c1cc(I)cc(I)c1`, for which the logD worked out at 2.52.

In the case of `O=C(NP(=O)(N1CC1)N1CC1)c1ccc(F)cc1`, the logD came out at 0.13.

Consider `O=C(NP(=O)(N1CC1)N1CC1)c1cccc(I)c1`, for which the logD was 1.37.

As for `O=C(NP(=O)(N1CC1)N1CC1)c1ccccc1Br`, the log distribution coefficient (logD) turned out to be 0.45.

In turn, `CCOc1cccc(C(=O)NP(=O)(N2CC2)N2CC2)c1` showed a logD of 0.42. The logD values of the last two compounds are within 0.2 log units of each other.

As to `COc1cccc(C(=O)NP(=O)(N2CC2)N2CC2)c1`, the logD was 0.04.

`O=C(NP(=O)(N1CC1)N1CC1)c1cc(Br)cc(Br)c1`: the logD came out at 1.15.

With `C=CCc1ccc(C(=O)NP(=O)(N2CC2)N2CC2)cc1`, the logD amounted to 0.69.

As for `C=CCc1cccc(C(=O)NP(=O)(N2CC2)N2CC2)c1`, the log distribution coefficient (logD) stood at 0.65.

Turning to `O=C(NP(=O)(N1CC1)N1CC1)c1ccc(I)cc1`, the logD was found to be 1.63.

`O=C(NP(=O)(N1CC1)N1CC1)c1cccc(Br)c1` displayed a logD of 0.88.

Compound `O=C(NP(=O)(N1CC1)N1CC1)c1ccccc1` registered a logD of -0.15.

Compound `COc1ccc(C(=O)NP(=O)(N2CC2)N2CC2)cc1` returned a pH-dependent lipophilicity (logD) of -0.02.
